# According to patent US20210308101A1, “METHODS OF TREATING FIBROMYALGIA” (Aptinyx Inc., priority 2019, published 2021):
# Assays:
# NMDAR = NMDAR modulation (description); settings: low concentrations of endogenous agonist (glycine or D-serine), in the presence of glutamate
# [1] = tested on: subjects with fibromyalgia; experiment: Fibromyalgia Survey Questionnaire (Widespread Pain Index, Symptom Severity Score); type: in vivo, human
# Excerpt: As used herein, “FSQ” is Fibromyalgia Survey Questionnaire, which is a patient-reported tool to assess the 2011 ACR Fibromyalgia criteria circumventing the requirement of physician assessment. The criteria review the widespread pain index, and somatic symptoms. The somatic symptoms of fatigue, waking unrefreshed, and cognitive symptoms were scored from 0 (no problem) to 3 (severe, pervasive, continuous, life disturbing problems). Symptoms of headaches, pain or cramps in the lower abdomen, and depression were given a score of 1, if they had occurred in the past 3 months.
# As used herein, “WPI” is the Widespread Pain Index, which is a score comprised of 19 areas where subjects experienced pain within the last week with a yes or no response for each area. Each individual yes response has a numeric value of 1 and 0 is assigned to each no response. The WPI score had values ranging from 0 to 19. If any of the individual area responses were missing, the WPI score was not calculated. Here are the 19 areas that were assessed: Left Jaw, Right Jaw, Left Shoulder, Right Shoulder, Right Upper Arm, Left Upper Arm, Right Lower Arm, Left Lower Arm, Neck, Upper Back, Chest, Abdomen, Lower Back, Right Hip, Left Hip, Right Upper Leg, Left Upper Leg, Right Lower Leg, and Left Lower Leg.
# As used herein, “SS” is the Symptom Severity Score, based on 3 questions each having a numeric score ranging from 0 to 3 and an additional 3 questions each having a numeric score of 0 or 1. If all 6 questions were given a numeric score, then the Symptom Severity Score ranged from 0 to 12. If any of the individual scores were missing, the Symptom Severity Score was not calculated.
# As used herein, “ACR Fibromyalgia Criteria” is 2011 American College of Rheumatology Fibromyalgia Criteria, and includes FSQ, WPI, and SS. These assessments were analyzed at Day 1, Week 2, Week 4, Week 6, and Follow-up (Week 7). Both the observed Widespread Pain Index score and Symptom Severity Score, changes from baseline, and changes from treatment periods were summarized using descriptive statistics. Additionally, the treatment group comparisons were analyzed using the paired t-test and nonparametric Wilcoxon signed-rank test. A frequency distribution table was presented for yes/no responses for these categories: • Widespread Pain Index ≥7 and Symptom Severity Score >5 • Widespread Pain Index is 3 to 6 and the Symptom Severity Score is >9
# [2] = tested on: subjects with fibromyalgia; experiment: Safety evaluation in the fibromyalgia study; type: in vivo, human; settings: 20 mg then 200 mg PO QD, 2 weeks each
# Excerpt: Adverse events (AEs), vital signs, electrocardiograms, physical examinations, Columbia Suicide Rating Scales, and clinical laboratory samples were collected throughout the study.
# • Adverse events • Vital sign measurements • Clinical laboratory test results • Electrocardiogram results • Physical examination findings • Columbia-Suicide Severity Rating Scale (C-SSRS)
# [3] = tested on: subjects with fibromyalgia; experiment: QST: digital algometer pressure pain threshold (trapezius, wrist, patella); type: in vivo, human
# Description: Localized pressure pain sensitivity was also measured bilaterally at 3 additional body regions: trapezius, wrist, and patella. Examination of multiple sites across all quadrants of the body permitted analysis of the distribution of pain sensitivity. Sensitivity was measured using a digital algometer with a 1-cm^2 flat rubber probe. […] Measurements were conducted 2 to 3 times (15- to 20-second intervals) at each site.
# QST data were analyzed at the University of Michigan CPFRC. Dependent variables were the MAST derived outcomes (Pain50, pressure pain threshold, pain tolerance, and pain ratings at 2 kg/cm2), algometry-derived pressure pain thresholds (mean of three trials) at each anatomical site, average cuff intensity ratings (mean of ratings at all stimulus levels during the ascending or random sequences), and average visual task unpleasantness and brightness intensity ratings (mean of ratings at all stimulus levels). Practice data were not analyzed. Overall pain intensity and unpleasantness NRS scores as well as stimulus response curves for each test were assessed during post hoc analyses. Data points displaying measurement artefacts, including device malfunction or user error, were set to missing. Single subject QST variables were analyzed using paired t-tests and/or nonparametric Wilcoxon signed-rank tests in SPSS or R.
# [4] = tested on: subjects with fibromyalgia; experiment: Brief Pain Inventory - Short Form (BPI-SF); type: in vivo, human; settings: not statistically significant
# Excerpt: As used herein, “Brief Pain Inventory” (BPI)—Short Form is a brief, simple patient-completed numeric rating scale that assesses the severity of pain (Severity scale), its impact on daily functioning (Interference scale), and other aspects of pain (e.g., location of pain, relief from medications). A short form version of the BPI, including the 4-item pain Severity scale (Worst Pain, Least Pain, Average Pain, and Pain Now) and the 7-item pain Interference scale (General Activity, Mood, Walking Ability, Normal Work, Relations with Other People, Sleep, Enjoyment of Life) were the main BPI-Short Form analyses. […] If at least 3 of the 4 Severity items have a reported score, then the Pain Severity Index was the calculated mean. Otherwise, the Pain Severity Index was set to missing. […] Otherwise, the Pain Interference Index was set to missing. […] The Pain Severity Index and the Pain Interference Index were referred to as composite scores.
# There may be dates in which worst pain in the last 24 hours has scores that are less than the least pain in the last 24 hours and/or right now pain scores. Also, the least pain in the last 24 hours scores may be greater than the worst pain in the last 24 hours and/or right now pain scores. This may be due to the collection of the data that cannot be changed due to the subject's confusion of the three scores. The Pain Severity Index score equally distributes all these three scores and the average pain score. Therefore, the Pain Severity Index score is not impacted by any of these scores being mixed up. As a result, the scores were analyzed based on the values collected.
# The 2 composite scores took on values ranging from 0 to 10 and were rounded off by one number after the decimal point. A total pain score for BPI-Short Form was not calculated. The BPI-Short Form assessment was collected and analyzed at visits Screening, Day 1, Week 2, Week 4, Week 6, and Follow-up (Week 7). The observed composite scores, changes from baseline, and changes from treatment periods were summarized using descriptive statistics. Additionally, the treatment group comparisons were analyzed using the paired t-test and nonparametric Wilcoxon signed-rank test. All BPI-Short Form data collected and the calculated composite scores at each visit were presented in a subject listing. […] Have you had pain other than these everyday kinds of pain today?” is a categorical response (yes/no). […] This question was included in the descriptive statistics, but was not analyzed using any paired t-test and nonparametric Wilcoxon signed-rank test comparisons. • BPI-Short Form question 2, “On the diagram, shade in the areas where you feel pain. […]
# [5] = Week 2 (placebo) to Week 4 (NYX-2925 20 mg), not statistically significant
# [6] = Week 2 (placebo) to Week 4 (NYX-2925 20 mg)
# [7] = Week 2 (placebo) to Week 6 (NYX-2925 200 mg)
structure (smiles),measurement,setting,value
"CC(C)C(=O)N1CCC[C@]12CN([C@H](C(N)=O)[C@@H](C)O)C2=O [NYX-2925, (2S, 3R)-3-hydroxy-2-((R)-5-isobutyryl-1-oxo-2,5-diazaspiro[3.4]octan-2-yl)butanamide]",activity at the NMDAR,NMDAR,partially activates the NMDAR
same,"Symptom Severity score, mean change",[1]; [5],−0.3
same,"Widespread Pain Index, mean change",[1]; [5],0.0
same,"Widespread Pain Index, mean change","[1]; Week 2 (placebo) to Week 6 (NYX-2925 200 mg), not statistically significant",−1.3
same,"Symptom Severity score, mean change","[1]; Week 2 (placebo) to Week 6 (NYX-2925 200 mg), statistically significant",−0.9
same,discontinuations due to treatment-emergent adverse events (TEAE),[2],no discontinuations
same,safety and tolerability,[2],safe and well tolerated
same,serious adverse events,[2],No serious adverse events
same,right trapezius pressure pain threshold,"[3]; 200 mg, placebo 1.77±1.53, p=0.047",1.58±1.37 kgf/cm^2
same,left wrist pressure pain threshold,"[3]; NYX-2925 20 mg, baseline 1.60±1.11, p=0.042",1.30±1.08 kgf/cm^2
same,right wrist pressure pain threshold,"[3]; NYX-2925 20 mg, baseline 1.64±1.30, p=0.021",1.28±1.10 kgf/cm^2
same,right wrist pressure pain threshold,"[3]; NYX-2925 200 mg, baseline 1.64±1.30, p=0.042",1.32±1.15 kgf/cm^2
same,"BPI-SF Pain Interference Index score, mean change",[4]; [6],−0.04
same,"BPI-SF Pain Severity Index score, mean change",[4]; [6],−0.22
same,"BPI-SF Pain Interference Index score, mean change",[4]; [7],−0.66
same,"BPI-SF Pain Severity Index score, mean change",[4]; [7],−0.27
